The source of these data is patent US12642791B2, “Inhibitors of lysyl oxidases” (UNIVERSITY OF SOUTH CAROLINA, priority 2021, dated 2026).

A word on the IC50: it is the concentration at which inhibition is half-maximal.

In series [1] the test system is MDA-MB-231 cells embedded in collagen I. In words: ECM crosslinking by collagen and fibronectin immunofluorescence staining. The class given is cell-based, human. Here is the method: FIG. 31. […] A. Inhibition of LOX activity in MDA-MB-231 cells treated with 5 μM of the LOX inhibitors. B. Doxorubicin sensitization with 6232 and its analogs, 6403 and 6415, in 3D collagen-I culture. C. Collagen and fibronectin staining of vehicle or 6232 or 6403 or 6415-treated MDA-MB-231 cells embedded in collagen I. BAPN is used as a positive control.
(§1) Immunofluorescence staining of cells was done in μ-Slide 8-well glass bottom chambers (Ibidi, Germany). Cells were fixed with 4% paraformaldehyde for 20 min, permeabilized with 0.5% Triton X-100 for 10 min and blocked in 5% BSA-PBS. Samples were incubated with primary (Collagen I, Fibronectin, F-actin, a-SMA) and secondary Alexa Fluor 647 or 488-labeled antibodies for 1.5 hours at room temperature. Cells were also counterstained with DAPI for 5 min. Images were acquired using ZEN 2012 SP5 (Black) LSM 700 (Carl Zeiss, DE).

The next series deals with MDA-MB-43614. Put plainly: Doxorubicin re-sensitization of collagen I-embedded TNBC cells. The series is classed as cell-based, human.
For series [2] the following is noted: in vivo; cited from earlier work.
The next series has as its system MDA-MB-231 cells. In words: Doxorubicin chemosensitization in 3D collagen I culture. The series is classed as cell-based, human. The following applies: collagen I-embedded cells, combination with doxorubicin. As to the method:
Collagen solution was prepared at a concentration of 0.5-1 mg/ml from the rat tail collagen I (Corning, USA) with a neutralization step including the addition of 1N NaOH solution. Cells were trypsinazed and resuspended in collagen:matrigel mix (1:1). 8×10^3 cells were seeded into 96-well or μ-Slide 8-well glass bottom chambers. After 1 hour of incubation at room temperature, media was added on top of the solidified collagen:matrigel mix. Drug treatments were done 12 hours after cell seeding.
Cells were embedded in type I collagen:matrigel mix as described above. Cells were grown in the presence of doxorubicin or LOX inhibitors alone or combination of LOX inhibitors with doxorubicin for 48 hours. After the treatment, cell viability was measured by using 3D Cell Titer Glo (Promega, USA) kit.

Series [3] has as its system cellular lysyl oxidase (LOX) activity, MDA-MB-231 cells. Put plainly: Cell-based lysyl oxidase activity assay (Abcam kit). Also on record: species or system human. The following applies: read-out: IC50 for cellular lysyl oxidase inhibition. From the text: As the available LOX inhibitors are either not very potent or have toxicity, the inventors developed a robust screening pipeline shown in FIG. 28 to identify potent and safe LOX-specific and pan-LOX inhibitors. Briefly, a high-throughput cell-based LOX activity (Abcam) screen (HTS) was done for more than 5,000 drug-like compounds from the EXPRESS-Pick diversified library (4,480 molecules, ChemBridge) and Tocriscreen library of bioactive compounds (1,280 compounds, Tocris), each at a single concentration of 10 μM. […] The toxic molecules were counter screened with cell cytotoxicity assay and filtered out.
FIGS. 34. […] IC50 for cellular lysyl oxidase activity upon treatment of MDA-MB-231 cells with different LOX inhibitors. uM=microM.
For cell-based lysyl oxidase activity, fluorometric Lysly Oxidase Activity Assay Kit (Abcam, USA) was used according to manufacturer's instructions. Briefly, after the treatment, 50 μl of supernatant from each well was incubated with reagent mix and fluorescence measured in multimode-reader at Ex/Em=540/590 nm wavelength.

Another series deals with TM01278 PDX. In words: Doxorubicin-resistant TNBC PDX tumors. The series is classed as in vivo. Here is the method: FIG. 27. Targeting LOX in TNBC PDX organoids or tumors overcomes resistance. A. Scheme showing the selection pipeline of PDXs for in vivo testing. B. Correlation analysis of LOX mRNA expression with hypoxia and focal adhesion scores in 15 different TNBC PDX models. Red dots show the positions of the selected TM01278. C. Representative images of TM01278 PDX organoids at day 0 and day 9 after treatment with doxorubicin (40 nM) and BAPN (25 mM) treatment, alone or in combination (left) and quantification of organoid diameter upon combination therapy for 9 days (right) (n=12 (vehicle, Doxo, BAPN), n=11 (Doxo+BAPN)). D. Tumor growth of TM01278 PDX upon treatment with doxorubicin (2 mg/kg) and BAPN (100 mg/kg), alone or in combination (n=5). […] E. Quantification of Picrosirius red staining in PDX tumors from D (n=4). F. Doxorubicin fluorescence quantification in tumors from D (n=6). G. Western Blots of FAK/Src signaling in PDXs treated with doxorubicin and BAPN alone or in combination.

The next series relates to Caki-1 cells. In words: ECM crosslinking in kidney cancer cells. The class given is cell-based, human. The following applies: 6232 at 10 uM, BAPN at 10 mM. Here is the method:
as §1

The subject of another series is TM01278 PDX organoids. Put plainly: PDX-derived TNBC organoids, combination with doxorubicin. The class given is cell-based, human. The following applies: BAPN (25 mM) with doxorubicin (40 nM), 3D culture with collagen I, 9 days. Here is the method: FIG. 36. Combination of 6403 and 6415 with doxorubicin reduced the growth of the TNBC organoids. A. Representative images of TM01278 PDX organoids at day 0 and day 9 after treatment with doxorubicin (50 nM) and 6403 and 6415 treatments, alone or in combination. B. Quantification of organoid diameter and viability upon combination therapy for 9 days.
TNBC organoids were established from a fresh surgical tissue by cutting the tumor into small pieces and incubating in collagenase A solution with ROCK inhibitor on a shaker at 37° C. for 30 minutes. The collagenase activity was inhibited by adding FBS, and pipetting was done to ensure the formation of almost a single cell solution. After several washes with PBS, the cell pellet was dissolved in matrigel. Breast organoid media containing ROCK and GSK inhibitors was added after the Matrigel solidified. See, Sachs, N. et al. A Living Biobank of Breast Cancer Organoids Captures Disease Heterogeneity. Cell 172, 373-386 e310, doi:10.1016/j.cell.2017.11.010 (2018). For drug testing studies, organoids were disrupted to single cells by digesting at 37° C. for 30 mins with TrypLE (A1217701, Gibco, NY, USA) in the presence of 10 μM Rock inhibitor (s1049, Selleckchem, TX, USA). Organoids were plated into wells of 96 well plate (20.000 cells/well) on a collagen-coated surface with media containing 2% Matrigel (356252, Corning, NY, USA). Drugs were added 72 hours after plating. Cells were grown in the presence of drug or vehicle for 9 days, and photos were taken from each well to show the organoid size. Organoid viability was measured by using 3D Cell Titer Glo (Promega, USA) kit.

For the next series, the system named is MDA-MB-15714. In words: Doxorubicin re-sensitization of collagen I-embedded TNBC cells. The class given is cell-based, human.
The test system of a further series is MDA-MB-231 xenografts. Put plainly: Acquired doxorubicin resistant xenografts. The series is classed as in vivo. The following applies: BAPN 100 mg/kg added to doxorubicin 2.5 mg/kg. Here is the method:
To test the ability of LOX inhibition to overcome doxorubicin resistance in chemotherapy-refractory TNBC in vivo, the inventors first treated MDA-MB-231 xenografts with doxorubicin until an accelerated tumor growth was achieved.
At this point, BAPN (100 mg/kg) was added to half of the doxorubicin-resistant tumors while the rest continued to receive doxorubicin alone (2.5 mg/kg).
FIG. 26. Inhibiting LOX overcomes resistance in acquired doxorubicin resistant MDA-MB-231 xenografts. A. Tumor growth in xenografts treated with low dose doxorubicin until resistance develops followed by treatment with the combination of doxorubicin (2.5 mg/kg) and the LOX inhibitor, BAPN (100 mg/kg). B. Relative LOX activity in tumors from A. C. Representative images of Picrosirius red in tumors from A.

For the compound `N#CCCN` [BAPN, 6-aminopropionitrile], in [1], the “ECM crosslinking (collagen and fibronectin staining)” value is given as “decrease in ECM crosslinking”. Besides, the doxorubicin re-sensitization entry in the series on MDA-MB-43614 is “re-sensitized”. Moreover, the “toxicity in the clinic” value in series [2] is “showed toxicity in the clinic”. Also, the doxorubicin sensitization result in the series on MDA-MB-231 cells is recorded as “re-sensitized”. In addition, the IC50 in series [3] is more than 100 µM. Moreover, in the series on TM01278 PDX (BAPN 100 mg/kg), the LOX activity entry is given as “reduced”, the doxorubicin penetration entry is given as “enhanced doxorubicin penetration” and the fibrillar collagen content result is “reduced”. Also, the tumor growth result with TM01278 PDX (BAPN 100 mg/kg with doxorubicin 2 mg/kg) is recorded as “reduced tumor growth”. For the same compound, the ECM crosslinking entry with Caki-1 cells was “decrease in ECM crosslinking”. The tumor organoid size entry in the series with TM01278 PDX organoids is “significantly decreased tumor organoid size”. Besides, the doxorubicin re-sensitization entry in the series on MDA-MB-15714 is “re-sensitized”. In the series on MDA-MB-231 xenografts, the “LOX activity in tumors” value is recorded as “reduction in LOX activity”, the “fibrillar collagen in tumors” value is on record as “reduction”, the survival result is reported as “improved survival” and the tumor growth result is given as “significant decrease in tumor growth”.
